Structures are written as SMILES.

Common to all, as to type: biochemical
The target in test [1] is T1, Flt3 (Homo sapiens, UniProt P36888).
T1 sequence (P36888 27-993): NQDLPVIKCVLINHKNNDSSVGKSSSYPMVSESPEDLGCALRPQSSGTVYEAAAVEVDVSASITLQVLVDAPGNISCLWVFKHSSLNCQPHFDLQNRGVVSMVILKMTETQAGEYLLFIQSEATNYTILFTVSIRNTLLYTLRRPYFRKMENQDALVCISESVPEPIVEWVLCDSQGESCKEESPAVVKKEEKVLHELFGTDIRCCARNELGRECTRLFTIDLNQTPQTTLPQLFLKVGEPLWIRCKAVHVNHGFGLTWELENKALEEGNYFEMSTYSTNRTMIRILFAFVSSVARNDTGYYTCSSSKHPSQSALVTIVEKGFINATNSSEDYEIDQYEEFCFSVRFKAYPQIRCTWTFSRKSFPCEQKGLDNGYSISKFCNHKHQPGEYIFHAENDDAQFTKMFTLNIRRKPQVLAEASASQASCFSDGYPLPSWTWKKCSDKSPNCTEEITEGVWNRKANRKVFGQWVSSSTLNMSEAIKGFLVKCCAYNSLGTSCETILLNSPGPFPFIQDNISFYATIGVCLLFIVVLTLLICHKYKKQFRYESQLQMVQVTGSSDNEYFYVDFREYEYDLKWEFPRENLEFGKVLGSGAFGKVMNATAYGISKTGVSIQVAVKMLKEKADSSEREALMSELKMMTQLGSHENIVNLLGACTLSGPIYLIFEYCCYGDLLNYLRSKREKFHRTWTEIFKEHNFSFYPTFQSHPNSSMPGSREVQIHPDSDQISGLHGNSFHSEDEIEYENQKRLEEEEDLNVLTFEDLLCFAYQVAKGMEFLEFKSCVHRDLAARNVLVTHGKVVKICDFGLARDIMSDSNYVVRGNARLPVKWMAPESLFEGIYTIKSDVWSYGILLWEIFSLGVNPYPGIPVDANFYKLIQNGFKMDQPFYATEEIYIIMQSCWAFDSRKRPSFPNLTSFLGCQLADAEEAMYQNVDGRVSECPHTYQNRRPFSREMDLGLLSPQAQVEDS
The test is described as follows: Flt3 Kinase Activity. As for the experimental part:
(§1) Flt3 Kinase Activity: In a final reaction volume of 25 μl, Flt3 (h) (5-10 mU) is incubated with 8 mM MOPS pH 7.0, 0.2 mM EDTA, 50 μM EAIYAAPFAKKK, 10 mM MgAcetate and [γ-^33P-ATP] (specific activity approx. 500 cpm/pmol, concentration as required). The reaction is initiated by the addition of the MgATP mix. After incubation for 40 minutes at room temperature, the reaction is stopped by the addition of 5 ml of a 3% phosphoric acid solution. 10 ml of the reaction is then spotted onto a P30 filtermat and washed three times for 5 minutes in 75 mM phosphoric acid and once in methanol prior to drying and scintillation counting.

In test [2] the target is EphA3 (Homo sapiens, UniProt P29320). Briefly: Protein kinase inhibition, EphA3. As to conditions: Rate (μM) 2, read-out: % Control.
The target of test [3] is TrkA (Homo sapiens, UniProt P04629). The test is described as follows: Protein kinase inhibition, TrkA. As to conditions: Rate (μM) 2, read-out: % Control.
Test [4] concerns the target TrkB (Homo sapiens, UniProt Q16620). The test is described as follows: TrkB Kinase Activity. As for the experimental part:
as §1, with “TrkB” for “Flt3”, “0.1 mg/ml poly(Glu, Tyr) 4:1,” for “50 μM EAIYAAPFAKKK,”, “μl” for “ml”, “Filtermat A” for “P30 filtermat”

The target of test [5] is Tie2 (Homo sapiens, UniProt Q02763). The test is described as follows: Tie2 Kinase Activity. As for the experimental part:
as §1, with “Tie2” for “Flt3”, “0.5 mM MnCl2, 0.1 mg/ml poly(Glu, Tyr) 4:1,” for “50 μM EAIYAAPFAKKK,”, “μl” for “ml”, “Filtermat A” for “P30 filtermat”

Test [6] deals with EphA2 (Homo sapiens, UniProt P29317). The test is described as follows: Protein kinase inhibition, EphA2. As to conditions: Rate (μM) 2, read-out: % Control.
EphA2, sequence (P29317 24-976): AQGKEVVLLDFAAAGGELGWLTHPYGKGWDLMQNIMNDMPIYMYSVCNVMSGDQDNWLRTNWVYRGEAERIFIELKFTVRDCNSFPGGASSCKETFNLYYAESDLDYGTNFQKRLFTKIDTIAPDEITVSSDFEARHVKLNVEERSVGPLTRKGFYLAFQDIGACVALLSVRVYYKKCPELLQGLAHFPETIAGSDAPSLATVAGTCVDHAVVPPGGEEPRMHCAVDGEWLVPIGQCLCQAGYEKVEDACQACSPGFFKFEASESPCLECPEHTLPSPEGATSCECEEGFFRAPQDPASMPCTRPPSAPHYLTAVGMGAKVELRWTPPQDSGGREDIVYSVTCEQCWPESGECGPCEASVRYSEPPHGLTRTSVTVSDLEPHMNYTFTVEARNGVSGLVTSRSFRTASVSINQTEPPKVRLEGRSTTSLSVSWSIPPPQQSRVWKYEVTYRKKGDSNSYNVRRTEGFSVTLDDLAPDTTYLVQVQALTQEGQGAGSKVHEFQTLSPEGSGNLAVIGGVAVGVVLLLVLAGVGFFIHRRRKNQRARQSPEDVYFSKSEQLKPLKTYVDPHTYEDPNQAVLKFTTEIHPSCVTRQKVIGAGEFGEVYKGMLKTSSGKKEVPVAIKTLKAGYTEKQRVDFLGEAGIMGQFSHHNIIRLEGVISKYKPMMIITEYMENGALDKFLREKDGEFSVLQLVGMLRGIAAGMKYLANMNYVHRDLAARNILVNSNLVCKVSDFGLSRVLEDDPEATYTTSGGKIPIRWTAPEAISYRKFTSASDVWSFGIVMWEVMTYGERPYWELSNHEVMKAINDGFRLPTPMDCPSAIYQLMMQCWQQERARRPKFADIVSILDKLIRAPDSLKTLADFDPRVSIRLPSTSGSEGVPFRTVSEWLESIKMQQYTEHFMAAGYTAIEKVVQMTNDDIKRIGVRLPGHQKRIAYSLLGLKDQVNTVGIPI
The target of test [7] is p38α (Homo sapiens, UniProt Q16539). Briefly: SAPK2a Kinase Activity (p38α). As to the method:
SAPK2a Kinase Activity: In a final reaction volume of 25 μl, SAPK2a (h) (5-10 mU) is incubated with 25 mM Tris pH 7.5, 0.02 mM EGTA, 0.33 mg/ml myelin basic protein, 10 mM MgAcetate and [γ-^33P-ATP] (specific activity approx. 500 cpm/pmol, concentration as required). The reaction is initiated by the addition of the MgATP mix. After incubation for 40 minutes at room temperature, the reaction is stopped by the addition of 5 μl of a 3% phosphoric acid solution. 10 μl of the reaction is the spotted onto a P30 filtermat and washed three times for 5 minutes in 75 mM phosphoric acid and once in methanol prior to drying and scintillation counting.

In test [8] the target is MKK6 (Homo sapiens, UniProt P52564). The test is described as follows: Protein kinase inhibition, MKK6. As to conditions: Rate (μM) 2, read-out: % Control.
Test [9] concerns ROCKI. The test is described as follows: Protein kinase inhibition, ROCKI (rat). As to conditions: Rate (μM) 2.
In test [10] the target is FGFR1 (Homo sapiens, UniProt P11362). The test is described as follows: Protein kinase inhibition, FGFR1. As to conditions: Rate (μM) 2, read-out: % Control.
FGFR1, sequence (P11362 22-822): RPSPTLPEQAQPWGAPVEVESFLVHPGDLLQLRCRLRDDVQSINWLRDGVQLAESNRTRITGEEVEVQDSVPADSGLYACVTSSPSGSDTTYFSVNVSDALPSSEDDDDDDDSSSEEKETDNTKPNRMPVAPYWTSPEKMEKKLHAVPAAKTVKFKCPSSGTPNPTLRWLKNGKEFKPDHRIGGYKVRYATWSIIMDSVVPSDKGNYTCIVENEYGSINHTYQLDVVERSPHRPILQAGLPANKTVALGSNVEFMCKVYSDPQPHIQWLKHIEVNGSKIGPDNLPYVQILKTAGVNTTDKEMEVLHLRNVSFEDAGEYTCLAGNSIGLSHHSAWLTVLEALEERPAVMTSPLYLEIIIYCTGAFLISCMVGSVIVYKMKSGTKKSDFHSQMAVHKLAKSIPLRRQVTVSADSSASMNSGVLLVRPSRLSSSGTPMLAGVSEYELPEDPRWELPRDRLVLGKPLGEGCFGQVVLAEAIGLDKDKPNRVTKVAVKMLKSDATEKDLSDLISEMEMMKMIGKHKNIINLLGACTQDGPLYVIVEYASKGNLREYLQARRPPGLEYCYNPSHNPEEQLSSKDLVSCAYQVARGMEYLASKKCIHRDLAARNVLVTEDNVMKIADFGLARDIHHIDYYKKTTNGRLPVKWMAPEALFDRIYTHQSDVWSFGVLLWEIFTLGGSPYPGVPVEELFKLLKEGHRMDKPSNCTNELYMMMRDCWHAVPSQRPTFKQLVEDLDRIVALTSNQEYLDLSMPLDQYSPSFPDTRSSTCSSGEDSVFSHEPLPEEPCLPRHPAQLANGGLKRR
The target in test [11] is EphA8 (Homo sapiens, UniProt P29322). Briefly: Protein kinase inhibition, EphA8. As to conditions: Rate (μM) 2, read-out: % Control.
EphA8, sequence (P29322 28-1005): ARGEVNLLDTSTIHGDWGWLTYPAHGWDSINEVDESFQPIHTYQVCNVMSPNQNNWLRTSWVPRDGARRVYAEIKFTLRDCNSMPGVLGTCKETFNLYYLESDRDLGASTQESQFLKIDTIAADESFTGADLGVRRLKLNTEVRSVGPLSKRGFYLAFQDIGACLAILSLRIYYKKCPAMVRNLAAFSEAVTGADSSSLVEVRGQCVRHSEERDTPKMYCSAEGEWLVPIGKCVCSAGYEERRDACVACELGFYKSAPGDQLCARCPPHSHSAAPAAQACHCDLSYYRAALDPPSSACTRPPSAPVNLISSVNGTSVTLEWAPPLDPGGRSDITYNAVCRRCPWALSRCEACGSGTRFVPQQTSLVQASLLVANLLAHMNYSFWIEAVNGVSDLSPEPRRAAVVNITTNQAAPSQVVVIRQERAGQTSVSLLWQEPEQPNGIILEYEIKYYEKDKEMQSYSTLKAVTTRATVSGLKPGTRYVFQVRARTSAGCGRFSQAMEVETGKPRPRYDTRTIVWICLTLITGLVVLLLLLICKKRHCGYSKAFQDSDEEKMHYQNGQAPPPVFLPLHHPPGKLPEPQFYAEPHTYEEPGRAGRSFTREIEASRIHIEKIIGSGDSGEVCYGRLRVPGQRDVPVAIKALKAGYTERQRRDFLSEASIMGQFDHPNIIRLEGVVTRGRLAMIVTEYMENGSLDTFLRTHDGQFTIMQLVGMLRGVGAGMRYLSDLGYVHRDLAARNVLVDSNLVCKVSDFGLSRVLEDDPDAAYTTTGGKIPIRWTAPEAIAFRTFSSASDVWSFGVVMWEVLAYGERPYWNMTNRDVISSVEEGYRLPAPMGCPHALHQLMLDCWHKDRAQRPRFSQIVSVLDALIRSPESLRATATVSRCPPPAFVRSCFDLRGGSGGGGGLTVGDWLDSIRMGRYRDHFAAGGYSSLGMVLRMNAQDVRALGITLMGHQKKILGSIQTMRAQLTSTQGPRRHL
Test [12] concerns the target Ret (Homo sapiens, UniProt P07949). Briefly: Protein kinase inhibition, Ret. As to conditions: Rate (μM) 2, read-out: % Control.

Tie2, sequence (Q02763 23-1124): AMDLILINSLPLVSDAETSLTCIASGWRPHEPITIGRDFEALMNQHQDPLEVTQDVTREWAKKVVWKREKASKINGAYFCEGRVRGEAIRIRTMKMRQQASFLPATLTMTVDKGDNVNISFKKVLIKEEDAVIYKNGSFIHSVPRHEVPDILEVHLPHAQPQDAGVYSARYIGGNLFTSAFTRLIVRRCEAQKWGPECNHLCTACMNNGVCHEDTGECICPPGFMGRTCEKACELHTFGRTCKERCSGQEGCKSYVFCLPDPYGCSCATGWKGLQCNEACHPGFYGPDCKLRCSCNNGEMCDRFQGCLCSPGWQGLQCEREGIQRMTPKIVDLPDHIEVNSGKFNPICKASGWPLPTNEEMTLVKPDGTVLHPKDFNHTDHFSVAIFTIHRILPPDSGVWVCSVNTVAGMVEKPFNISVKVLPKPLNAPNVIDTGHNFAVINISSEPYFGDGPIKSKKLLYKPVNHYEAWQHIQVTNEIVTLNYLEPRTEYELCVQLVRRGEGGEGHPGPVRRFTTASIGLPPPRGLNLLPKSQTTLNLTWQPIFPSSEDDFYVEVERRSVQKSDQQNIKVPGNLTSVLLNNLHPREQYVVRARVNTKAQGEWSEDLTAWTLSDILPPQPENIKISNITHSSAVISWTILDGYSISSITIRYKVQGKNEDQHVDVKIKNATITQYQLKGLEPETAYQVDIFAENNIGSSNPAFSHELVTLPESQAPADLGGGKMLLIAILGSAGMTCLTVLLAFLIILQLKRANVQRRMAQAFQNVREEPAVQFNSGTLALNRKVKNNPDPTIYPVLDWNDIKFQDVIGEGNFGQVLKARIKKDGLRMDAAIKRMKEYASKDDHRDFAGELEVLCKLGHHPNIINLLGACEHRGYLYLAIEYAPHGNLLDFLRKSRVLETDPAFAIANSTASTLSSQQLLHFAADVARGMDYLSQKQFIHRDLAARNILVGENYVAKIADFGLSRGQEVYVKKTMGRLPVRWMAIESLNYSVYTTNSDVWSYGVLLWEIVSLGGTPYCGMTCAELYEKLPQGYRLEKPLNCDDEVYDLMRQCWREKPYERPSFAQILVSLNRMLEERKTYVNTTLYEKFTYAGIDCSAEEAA
p38α, sequence (Q16539 whole entry): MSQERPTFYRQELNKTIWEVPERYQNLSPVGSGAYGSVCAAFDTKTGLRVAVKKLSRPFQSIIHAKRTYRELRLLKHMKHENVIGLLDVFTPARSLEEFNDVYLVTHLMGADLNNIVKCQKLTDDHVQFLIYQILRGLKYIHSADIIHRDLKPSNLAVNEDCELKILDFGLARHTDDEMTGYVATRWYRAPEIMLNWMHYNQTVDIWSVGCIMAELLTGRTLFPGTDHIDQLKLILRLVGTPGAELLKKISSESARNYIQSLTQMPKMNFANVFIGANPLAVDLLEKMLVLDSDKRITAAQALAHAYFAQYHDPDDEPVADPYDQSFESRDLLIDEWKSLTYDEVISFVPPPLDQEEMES
TrkB, sequence (Q16620 32-822): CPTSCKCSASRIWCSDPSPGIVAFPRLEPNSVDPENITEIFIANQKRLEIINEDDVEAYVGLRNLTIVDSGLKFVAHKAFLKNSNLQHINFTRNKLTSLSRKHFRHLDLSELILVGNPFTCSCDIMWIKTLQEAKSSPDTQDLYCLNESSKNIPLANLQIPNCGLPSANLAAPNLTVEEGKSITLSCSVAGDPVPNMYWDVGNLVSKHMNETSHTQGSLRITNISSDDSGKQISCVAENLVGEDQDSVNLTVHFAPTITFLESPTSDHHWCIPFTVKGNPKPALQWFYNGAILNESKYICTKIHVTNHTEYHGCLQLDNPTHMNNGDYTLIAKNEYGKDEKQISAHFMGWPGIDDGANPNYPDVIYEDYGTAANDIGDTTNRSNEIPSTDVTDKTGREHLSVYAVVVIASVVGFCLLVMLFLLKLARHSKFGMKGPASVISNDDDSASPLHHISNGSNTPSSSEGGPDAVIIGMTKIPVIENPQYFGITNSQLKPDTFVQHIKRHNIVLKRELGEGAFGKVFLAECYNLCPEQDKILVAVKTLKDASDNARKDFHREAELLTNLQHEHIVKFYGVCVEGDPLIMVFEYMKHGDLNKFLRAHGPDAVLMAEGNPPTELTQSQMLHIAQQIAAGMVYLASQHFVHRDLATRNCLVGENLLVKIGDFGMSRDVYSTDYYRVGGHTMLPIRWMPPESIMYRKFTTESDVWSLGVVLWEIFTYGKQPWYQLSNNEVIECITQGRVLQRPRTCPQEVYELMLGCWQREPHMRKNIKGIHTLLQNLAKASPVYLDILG

Turning to `CC(C)(C)c1cc(C(=O)N2CCS(=O)(=O)CC2)c(NC(=O)Nc2ccc(Oc3ccncc3)cc2)s1` [Example 3, 1-[5-tert-Butyl-3-(1,1-dioxo-1λ^6-thiomorpholine-4-carbonyl)thiophen-2-yl]-3-[4-(pyridin-4-yloxy)phenyl]urea], the remaining activity at 2 µM is 76 to 100% in test [1] (40 min, Flt3, Human, Rate (μM) 2, read-out: % Control); 76 to 100% in test [2]; 76 to 100% in test [3]; 76 to 100% in test [4] (40 min, Human, Rate (μM) 2, read-out: % Control); 76 to 100% in test [5] (40 min, Tie2, Human, Rate (μM) 2, read-out: % Control); 76 to 100% in test [6]. Further, the remaining activity at 2 µM in test [8], in [10], in [11] and in [12] was 76 to 100% throughout. Also, the “% Inhibition at 2 μm” value in test [1] (Flt3, compound at 2 μm) was 76-100%; in [4] (compound at 2 μm), 76-100%; in test [5] (Tie2, compound at 2 μm), 76-100%; in test [7] (p38α, compound at 2 μm), 76-100%. For the same compound, the “% inhibition” value in test [7] (P38a, Human, Rate (μM) 2) is 76-100%; in test [9], 51-75%.

The record behind these values is patent publication US7612200B2, “Inhibitors of protein kinases” (Locus Pharmaceuticals, Inc., priority 2004, dated 2009).
